Measurements: patent publication US12398121B2 (Nuvation Bio Inc., priority 2018, dated 2025)

Columns and labels:
Human recombinant PARP2 = Human recombinant PARP2 (Homo sapiens, UniProt Q9UGN5); test: RBC HotSpot PARP2 radioisotope-based filter binding assay; assay type: biochemical; conditions: 2.5 nM enzyme, histone H3, 10 μM 32P-NAD+; read-out: PARP2 IC50
In short: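 Radiometric filter-binding assay: 2.5 nM recombinant enzyme with 20 μM histone (H4 for PARP1, H3 for PARP2) and activated DNA, pH 8.0, 1% DMSO. 20 min preincubation, then 10 μM ^32P-NAD^+ for 2 h at room temperature; filtered radioactivity gives IC50 fits.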

22RV1 cells = test: Cell proliferation assay (CellTiter Glo), 22RV1; assay type: cell-based; conditions: Homo sapiens, 22Rv1, 72 h, read-out: 22RV1 IC50

Chain of Human recombinant PARP2 (Q9UGN5 whole entry): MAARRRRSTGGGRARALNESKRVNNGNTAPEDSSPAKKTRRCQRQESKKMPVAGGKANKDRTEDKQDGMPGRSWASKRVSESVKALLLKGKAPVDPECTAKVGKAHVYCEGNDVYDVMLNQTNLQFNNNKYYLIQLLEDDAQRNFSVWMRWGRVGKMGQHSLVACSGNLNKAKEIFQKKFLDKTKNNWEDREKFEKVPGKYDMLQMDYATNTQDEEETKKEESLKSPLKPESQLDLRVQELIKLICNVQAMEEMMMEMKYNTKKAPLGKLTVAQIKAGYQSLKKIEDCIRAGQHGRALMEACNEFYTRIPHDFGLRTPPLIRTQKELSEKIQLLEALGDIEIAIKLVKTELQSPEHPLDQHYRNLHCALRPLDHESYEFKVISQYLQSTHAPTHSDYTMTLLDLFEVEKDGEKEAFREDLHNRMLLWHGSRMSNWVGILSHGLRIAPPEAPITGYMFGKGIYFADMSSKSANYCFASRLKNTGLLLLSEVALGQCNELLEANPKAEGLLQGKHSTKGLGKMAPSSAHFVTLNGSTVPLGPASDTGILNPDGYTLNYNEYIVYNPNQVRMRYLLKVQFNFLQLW

Question: Which IC50 (Human recombinant PARP2) does the source give for C[C@](O)(COc1ccc(NCCCCCC(=O)N2CCN(C(=O)c3cc(Cc4n[nH]c(=O)c5ccccc45)ccc3F)CC2)cc1)C(=O)Nc1ccc(C#N)c(C(F)(F)F)c1 [Compound 1.83, (S)-N-(4-cyano-3-(trifluoromethyl)phenyl)-3-(4-(6-(4-(2-fluoro-5-((4-oxo-3,4-dihydrophthalazin-1-yl)methyl)benzoyl)piperazin-1-yl)-6-oxohexylamino)phenoxy)-2-hydroxy-2-methylpropanamide] here?
Answer: Its IC50 is 0.3 nM.

Question: And the IC50 (22RV1 cells)?
Answer: The IC50 was > 30000 nM.
